In the supplement of paper PMC11821682:

What was measured:
HL-60 = test: Cell Health Index (toxicity pseudo-probability over dose series) (index 0-1); higher = more cytotoxic / cell stress;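 note: HL-60 cells exposed 4 h at 37 °C to ten threefold dilutions spanning 5 nM to 100 µM, multiparametric flow cytometry features scored by machine-learning classification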
Danio rerio embryo = test: BMC10 any morphological effect or mortality at 120 hpf; higher = less toxic

SMILES: CCCCN(CCCC)CC(O)c1cc(Cl)cc2c1-c1ccc(Cl)cc1/C2=C/c1ccc(Cl)cc1 (configuration not stated) [Lumefantrine]
- Cell Health Index (HL-60): 0.218
- BMC10 any morphological effect or mortality (Danio rerio embryo): > 100 µM

SMILES: O=c1cc(-c2ccc(O)c(O)c2)oc2cc(O)cc(O)c12 [Luteolin]
- Cell Health Index (HL-60): 0.54
- BMC10 any morphological effect or mortality (Danio rerio embryo): > 100 µM

SMILES: O=c1cc(-c2ccc(O)c(O)c2)oc2cc(O[C@@H]3O[C@H](CO)[C@@H](O)[C@H](O)[C@H]3O)cc(O)c12 [Luteoloside]
- Cell Health Index (HL-60): 0.345
- BMC10 any morphological effect or mortality (Danio rerio embryo): > 100 µM

SMILES: O=C(O)Cn1nnc(-c2cc(N3CCC(Oc4cc(F)ccc4Br)CC3)no2)n1 [MK-8245]
- Cell Health Index (HL-60): 0.226
- BMC10 any morphological effect or mortality (Danio rerio embryo): > 100 µM

SMILES: O=c1c2cc(O)c(O)cc2oc2cc(O)c([C@@H]3O[C@H](CO)[C@@H](O)[C@H](O)[C@H]3O)c(O)c12 [Mangiferin]
- Cell Health Index (HL-60): 0.26
- BMC10 any morphological effect or mortality (Danio rerio embryo): > 100 µM

SMILES: Cc1nnc(C(C)C)n1[C@@H]1C[C@H]2CC[C@@H](C1)N2CC[C@H](NC(=O)C1CCC(F)(F)CC1)c1ccccc1 [Maraviroc]
- Cell Health Index (HL-60): 0.155
- BMC10 any morphological effect or mortality (Danio rerio embryo): > 100 µM

SMILES: COc1cc(NC(=O)Nc2cccc(CNC(=O)O[C@H]3CCOC3)c2)ccc1-c1cnco1 [Merimepodib]
- Cell Health Index (HL-60): 0.67
- BMC10 any morphological effect or mortality (Danio rerio embryo): > 100 µM

SMILES: COC(=O)c1cc(O)c(O)c(O)c1 [Methyl gallate]
- Cell Health Index (HL-60): 0.351
- BMC10 any morphological effect or mortality (Danio rerio embryo): > 100 µM

SMILES: CCCCN1C[C@H](O)[C@@H](O)[C@H](O)[C@H]1CO.Cl [Miglustat]
- Cell Health Index (HL-60): 0.184
- BMC10 any morphological effect or mortality (Danio rerio embryo): > 100 µM

SMILES: NC(=O)c1ncn([C@@H]2O[C@H](CO)[C@@H](O)[C@H]2O)c1O [Mizoribine]
- Cell Health Index (HL-60): 0.202
- BMC10 any morphological effect or mortality (Danio rerio embryo): > 100 µM

SMILES: Cl.N=C(N)NC(=N)N1CCOCC1 [Moroxydine]
- Cell Health Index (HL-60): 0.19
- BMC10 any morphological effect or mortality (Danio rerio embryo): > 100 µM

SMILES: CNc1ncnc2c1ncn2[C@@H]1O[C@H](CO)[C@@H](O)[C@H]1O [N6-Methyladenosine]
- Cell Health Index (HL-60): 0.307
- BMC10 any morphological effect or mortality (Danio rerio embryo): > 100 µM

SMILES: CC(=O)NC1[C@H]([C@H](O)[C@H](O)CO)O[C@@](O[C@H]2[C@@H](O)[C@@H](CO)O[C@@H](O[C@@H]([C@H](O)[C@@H](O)C=O)[C@H](O)CO)[C@@H]2O)(C(=O)[O-])C[C@@H]1O.[Na+] (some centres not stated) [N-Acetylneuraminoyllactose]
- Cell Health Index (HL-60): 0.235
- BMC10 any morphological effect or mortality (Danio rerio embryo): > 100 µM

SMILES: CCCCCCCCCN1C[C@H](O)[C@@H](O)[C@H](O)[C@H]1CO [N-Nonyldeoxynojirimycin]
- Cell Health Index (HL-60): 0.254
- BMC10 any morphological effect or mortality (Danio rerio embryo): > 100 µM

SMILES: CC(=O)N[C@@H](CS)C(=O)O [N-acetyl-L-Cysteine]
- Cell Health Index (HL-60): 0.143
- BMC10 any morphological effect or mortality (Danio rerio embryo): > 100 µM

SMILES: CS(=O)(=O)O.Cc1c(O)cccc1C(=O)N[C@@H](CSc1ccccc1)[C@H](O)CN1C[C@H]2CCCC[C@H]2C[C@H]1C(=O)NC(C)(C)C [Nelfinavir]
- Cell Health Index (HL-60): 0.453
- BMC10 any morphological effect or mortality (Danio rerio embryo): > 100 µM

SMILES: C=C1CC[C@@H]2[C@](C)(CO[C@@H]3O[C@H](CO)[C@@H](O)[C@H](O)[C@H]3O)CCC[C@@]2(C)[C@@H]1CCC1=CCOC1=O [Neoandrographolide]
- Cell Health Index (HL-60): 0.21
- BMC10 any morphological effect or mortality (Danio rerio embryo): > 100 µM

SMILES: Cc1ccnc2c1NC(=O)c1cccnc1N2C1CC1 [Nevirapine]
- Cell Health Index (HL-60): 0.185
- BMC10 any morphological effect or mortality (Danio rerio embryo): > 100 µM

SMILES: CC(=O)O[C@H]1CC(=O)OC(C)(C)[C@@H]2CC(=O)[C@]3(C)[C@H](CC[C@@]4(C)[C@H](c5ccoc5)OC(=O)[C@H]5O[C@]543)[C@@]12C [Nomilin]
- Cell Health Index (HL-60): 0.278
- BMC10 any morphological effect or mortality (Danio rerio embryo): > 100 µM

SMILES: O=c1cc(-c2ccc(O)c(O)c2)oc2c([C@@H]3O[C@H](CO)[C@@H](O)[C@H](O)[C@H]3O)c(O)cc(O)c12 [Orientin]
- Cell Health Index (HL-60): 0.337
- BMC10 any morphological effect or mortality (Danio rerio embryo): > 100 µM

SMILES: CCOC(=O)C1=C[C@@H](OC(CC)CC)[C@H](NC(C)=O)[C@@H](N)C1.O=P(O)(O)O [Oseltamivir]
- Cell Health Index (HL-60): 0.252
- BMC10 any morphological effect or mortality (Danio rerio embryo): > 100 µM

SMILES: O=C1CCC[C@@H]2[C@H]3CCC[N+]4([O-])CCC[C@@H](CN12)[C@@H]34 (some centres not stated) [Oxymatrine]
- Cell Health Index (HL-60): 0.187
- BMC10 any morphological effect or mortality (Danio rerio embryo): > 100 µM

SMILES: Oc1cc(O)cc(/C=C/c2ccc(O)cc2O)c1 [Oxyresveratrol]
- Cell Health Index (HL-60): 0.673
- BMC10 any morphological effect or mortality (Danio rerio embryo): > 100 µM

SMILES: CC(=O)Nc1nc(C)c(-c2ccc(Cl)c(S(=O)(=O)NCCO)c2)s1 [PIK-93]
- Cell Health Index (HL-60): 0.267
- BMC10 any morphological effect or mortality (Danio rerio embryo): > 100 µM

SMILES: CCCn1c(=O)[nH]c2nc(-c3ccc(S(=O)(=O)N4CCN(c5ccc(Cl)cc5)CC4)cc3)[nH]c2c1=O [PSB-603]
- Cell Health Index (HL-60): 0.489
- BMC10 any morphological effect or mortality (Danio rerio embryo): > 100 µM

SMILES: C[C@@]1(F)[C@H](O)[C@@H](CO)O[C@H]1n1ccc(=O)[nH]c1=O [PSI-6206]
- Cell Health Index (HL-60): 0.116
- BMC10 any morphological effect or mortality (Danio rerio embryo): > 100 µM

SMILES: CCCCCCCCCCCCCCCC(=O)NCCO [Palmitoyl ethanolamide]
- Cell Health Index (HL-60): 0.283
- BMC10 any morphological effect or mortality (Danio rerio embryo): > 100 µM

SMILES: Cc1cnc(C(=O)N[C@H]2CCCCC/C=C\[C@@H]3C[C@@]3(C(=O)NS(=O)(=O)C3CC3)NC(=O)[C@@H]3C[C@@H](Oc4nc5ccccc5c5ccccc45)CN3C2=O)cn1 [Paritaprevir]
- Cell Health Index (HL-60): 0.626
- BMC10 any morphological effect or mortality (Danio rerio embryo): > 100 µM

SMILES: C[C@H]1CC[C@@]2(O)C(C)(C)[C@@H]3CC[C@@]2(C)[C@H]1C3 [Patchouli alcohol]
- Cell Health Index (HL-60): 0.202
- BMC10 any morphological effect or mortality (Danio rerio embryo): > 100 µM

SMILES: Nc1nc(=O)c2c(CCc3ccc(C(=O)N[C@@H](CCC(=O)[O-])C(=O)[O-])cc3)c[nH]c2[nH]1.O.O.O.O.O.O.O.[Na+].[Na+] [Pemetrexed]
- Cell Health Index (HL-60): 0.15
- BMC10 any morphological effect or mortality (Danio rerio embryo): > 100 µM

SMILES: Nc1nc(=O)c2ncn(CCC(CO)CO)c2[nH]1 [Penciclovir]
- Cell Health Index (HL-60): 0.126
- BMC10 any morphological effect or mortality (Danio rerio embryo): > 100 µM

SMILES: CC(=O)CCCCn1c(=O)c2c(ncn2C)n(C)c1=O [Pentoxifylline]
- Cell Health Index (HL-60): 0.147
- BMC10 any morphological effect or mortality (Danio rerio embryo): > 100 µM

SMILES: CC(C)CC(=O)N[C@H](C(=O)N[C@H](C(=O)N[C@@H](CC(C)C)[C@@H](O)CC(=O)N[C@@H](C)C(=O)N[C@@H](CC(C)C)[C@@H](O)CC(=O)O)C(C)C)C(C)C [Pepstatin A]
- Cell Health Index (HL-60): 0.154
- BMC10 any morphological effect or mortality (Danio rerio embryo): > 100 µM

SMILES: CCC(CC)[C@H](NC(C)=O)[C@@H]1[C@H](O)[C@@H](C(=O)O)C[C@H]1NC(=N)N [Peramivir]
- Cell Health Index (HL-60): 0.202
- BMC10 any morphological effect or mortality (Danio rerio embryo): > 100 µM

SMILES: CC(C)Cc1ncc(Cc2ccccc2)[nH]c1=O [Pheleuin]
- Cell Health Index (HL-60): 0.182
- BMC10 any morphological effect or mortality (Danio rerio embryo): > 100 µM

SMILES: O=C1NC(=O)C(c2ccccc2)(c2ccccc2)N1 [Phenytoin]
- Cell Health Index (HL-60): 0.193
- BMC10 any morphological effect or mortality (Danio rerio embryo): > 100 µM

SMILES: COC(=O)N[C@H](C(=O)N1CCC[C@H]1c1nc2cc([C@H]3CC[C@H](c4cc5nc([C@@H]6CCCN6C(=O)[C@@H](NC(=O)OC)[C@@H](C)OC)[nH]c5cc4F)N3c3cc(F)c(N4CCC(c5ccc(F)cc5)CC4)c(F)c3)c(F)cc2[nH]1)[C@@H](C)OC [Pibrentasvir]
- Cell Health Index (HL-60): 0.268
- BMC10 any morphological effect or mortality (Danio rerio embryo): > 100 µM

SMILES: c1cc(CN2CCCNCCNCCCNCC2)ccc1CN1CCCNCCNCCCNCC1 [Plerixafor]
- Cell Health Index (HL-60): 0.115
- BMC10 any morphological effect or mortality (Danio rerio embryo): > 100 µM

SMILES: OC[C@H]1O[C@@H](Oc2cc(O)cc(C=Cc3ccc(O)cc3)c2)[C@H](O)[C@@H](O)[C@@H]1O [Polydatin]
- Cell Health Index (HL-60): 0.106
- BMC10 any morphological effect or mortality (Danio rerio embryo): > 100 µM

SMILES: Cc1nc(N(C)C(=O)Cc2ccc(-c3ccccn3)cc2)sc1S(N)(=O)=O [Pritelivir]
- Cell Health Index (HL-60): 0.209
- BMC10 any morphological effect or mortality (Danio rerio embryo): > 100 µM

SMILES: CCCN(CCC)S(=O)(=O)c1ccc(C(=O)O)cc1 [Probenecid]
- Cell Health Index (HL-60): 0.196
- BMC10 any morphological effect or mortality (Danio rerio embryo): > 100 µM

SMILES: O=CC1OC(=O)c2cc(O)c(O)c(O)c2-c2c(cc(O)c(O)c2O)C(=O)OC1C1OC(=O)c2cc(O)c(O)c(O)c2-c2c(O)c(O)c3oc(=O)c4c(c(O)c(O)c5oc(=O)c2c3c54)-c2c(cc(O)c(O)c2O)C(=O)OCC1O (configuration not stated) [Punicalagin]
- Cell Health Index (HL-60): 0.837
- BMC10 any morphological effect or mortality (Danio rerio embryo): > 100 µM

SMILES: CC(C)[C@H](NC(=O)c1ccc2ccccc2n1)C(=O)N[C@@H](CC(=O)O)C(=O)COc1c(F)cccc1F [Q-VD-OPH]
- Cell Health Index (HL-60): 0.221
- BMC10 any morphological effect or mortality (Danio rerio embryo): > 100 µM

SMILES: O=c1c(O[C@@H]2O[C@H](CO)[C@H](O)[C@H](O)[C@H]2O)c(-c2ccc(O)c(O)c2)oc2cc(O)cc(O)c12 [Quercetin 3-D-galactoside]
- Cell Health Index (HL-60): 0.218
- BMC10 any morphological effect or mortality (Danio rerio embryo): > 100 µM

SMILES: C=C[C@H]1C[N@@]2CC[C@H]1C[C@H]2[C@H](O)c1ccnc2ccc(OC)cc12 [Quinine]
- Cell Health Index (HL-60): 0.249
- BMC10 any morphological effect or mortality (Danio rerio embryo): > 100 µM

SMILES: Cc1nnc(C(=O)NC(C)(C)c2nc(C(=O)NCc3ccc(F)cc3)c([O-])c(=O)n2C)o1.[K+] [Raltegravir]
- Cell Health Index (HL-60): 0.218
- BMC10 any morphological effect or mortality (Danio rerio embryo): > 100 µM

SMILES: CCC(CC)COC(=O)[C@H](C)N[P@](=O)(OC[C@H]1O[C@@](C#N)(c2ccc3c(N)ncnn23)[C@H](O)[C@@H]1O)Oc1ccccc1 [Remdesivir]
- Cell Health Index (HL-60): 0.275
- BMC10 any morphological effect or mortality (Danio rerio embryo): > 100 µM

SMILES: CCOCc1nc2c(N)nc3ccccc3c2n1CC(C)(C)O [Resiquimod]
- Cell Health Index (HL-60): 0.38
- BMC10 any morphological effect or mortality (Danio rerio embryo): > 100 µM

SMILES: Oc1ccc(/C=C\c2cc(O)cc(O)c2)cc1 [Resveratrol]
- Cell Health Index (HL-60): 0.416
- BMC10 any morphological effect or mortality (Danio rerio embryo): > 100 µM

SMILES: Cc1cc(/C=C/C#N)cc(C)c1Nc1ccnc(Nc2ccc(C#N)cc2)n1 [Rilpivirine]
- Cell Health Index (HL-60): 0.639
- BMC10 any morphological effect or mortality (Danio rerio embryo): > 100 µM

SMILES: CC(N)C12C[C@H]3C[C@@H](C1)C[C@@H](C2)C3.Cl (some centres not stated) [Rimantadine]
- Cell Health Index (HL-60): 0.137
- BMC10 any morphological effect or mortality (Danio rerio embryo): > 100 µM
